Assay results taken from patent US20250221987A1, “PIPERAZINO RING-CONTAINING DERIVATIVE, PHARMACEUTICALLY ACCEPTABLE SALT THEREOF, PREPARATION METHOD THEREFOR, AND APPLICATION THEREOF” (ACERAND THERAPEUTICS (HONG KONG) LIMITED, priority 2022, published 2025).
Where two headings read alike, the source gives them in different places.

What was measured:
MDA-MB-436 cells = assay: Proliferation activity assay of MDA-MB-436 cells (CellTiter-Glo); format: cell-based; details: 4000 cells seeded, 6 days incubation, read-out: MDA-MB-436 proliferation inhibition IC50
Experimental: Complete culture medium was prepared and mixed thoroughly. The cells were resuscitated and cultured for about two passages to select a cell line in good growth condition. The cell culture flask was removed from the incubator. Cell adherence: the culture medium was aspirated, then the cells were washed once with trypsin to discard the waste liquid, and 3 mL of fresh trypsin was added to the culture flask for digestion. When the cells were loose to be detached from the wall of the flask, 8 mL of complete culture medium was added thereto to stop trypsin digestion and mixed gently. The cell suspension was transferred to a centrifuge tube with a pipette and centrifuged at 1000 rpm for 5 minutes. The supernatant was discarded. An appropriate volume of culture medium was added to the centrifuge tube and pipetted gently to resuspend the cells evenly. The cells were counted using a Vi-Cell XR cell counter. The cell suspension was adjusted to an appropriate concentration. The cell suspension was added to a 96-well plate at 100 µL/well. The details such as cell name, seeding density, and date were labelled, and the culture plate was placed in a CO2 incubator overnight.
The compound to be tested was prepared into a 10 mM stock solution, which was aliquoted and stored in a −20° C. freezer. The compound solution was added to a 96-well plate using HPD300. The plate was incubated in a CO2 incubator for a total of 6 days.
CellTiter-Glo buffer was melted at room temperature. The lyophilized CellTiter-Glo substrate was equilibrated to room temperature. CellTiter-Glo buffer was added to the CellTiter Glo substrate and mixed thoroughly. A cell plate was taken out and equilibrated to room temperature. 100 μL of mixed CellTiter Glo reagent was added to each well, and the mixture was shaken in the dark for 10 minutes, followed by incubation for 20 minutes. The culture plate was placed into an Enspire reading plate, and the luminescence reading results were recorded. […] A pharmacodynamic inhibition rate curve was plotted by using XLFit, and the IC50 value was calculated. The 4-parameter model [fit=(A+((B−A)/(1+((C/x)^D)))] was used.

PARP1 = PARP1 (Homo sapiens (Human), UniProt P09874); assay: PARP1 enzymatic activity assay; format: biochemical; details: for PARP1/PARP2 inhibition Selectivity multiple N (N = IC50 (PARP2)/IC50 (PARP1)): ratio IC50 (PARP2)/IC50 (PARP1); for IC50: final PARP1 0.02 nM, DNA 0.8 nM, NAD+ 3.5 μM, 60 minutes
Sequence of PARP1 (P09874 whole entry): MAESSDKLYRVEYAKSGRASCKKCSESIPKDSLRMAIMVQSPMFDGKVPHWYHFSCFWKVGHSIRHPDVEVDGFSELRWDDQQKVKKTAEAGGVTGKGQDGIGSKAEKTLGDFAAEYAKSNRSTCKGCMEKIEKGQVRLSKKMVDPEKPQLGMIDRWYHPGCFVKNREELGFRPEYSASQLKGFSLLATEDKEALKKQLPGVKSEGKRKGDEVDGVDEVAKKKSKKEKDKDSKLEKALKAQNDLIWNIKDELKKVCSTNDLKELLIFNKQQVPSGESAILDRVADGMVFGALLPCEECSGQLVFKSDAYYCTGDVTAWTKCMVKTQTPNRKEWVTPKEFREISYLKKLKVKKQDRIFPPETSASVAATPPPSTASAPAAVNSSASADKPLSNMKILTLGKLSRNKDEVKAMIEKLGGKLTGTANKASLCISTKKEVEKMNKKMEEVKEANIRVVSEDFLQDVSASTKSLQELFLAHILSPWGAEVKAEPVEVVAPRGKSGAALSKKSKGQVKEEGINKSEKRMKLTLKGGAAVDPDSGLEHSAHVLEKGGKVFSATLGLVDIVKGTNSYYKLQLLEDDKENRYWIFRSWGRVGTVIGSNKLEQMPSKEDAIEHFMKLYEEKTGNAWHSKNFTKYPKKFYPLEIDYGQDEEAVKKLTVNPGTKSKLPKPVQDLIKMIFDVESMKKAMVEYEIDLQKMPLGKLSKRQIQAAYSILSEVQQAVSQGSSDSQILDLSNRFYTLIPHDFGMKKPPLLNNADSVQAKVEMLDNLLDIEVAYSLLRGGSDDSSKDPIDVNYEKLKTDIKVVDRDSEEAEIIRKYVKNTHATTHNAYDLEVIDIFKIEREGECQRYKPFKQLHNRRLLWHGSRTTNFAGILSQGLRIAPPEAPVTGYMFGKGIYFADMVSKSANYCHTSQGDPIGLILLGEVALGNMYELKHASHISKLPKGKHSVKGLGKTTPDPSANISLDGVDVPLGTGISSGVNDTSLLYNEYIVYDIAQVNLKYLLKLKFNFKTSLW
Experimental: 2) After the coating was completed, the coating buffer was discarded.
After washing, the blocking buffer was discarded.
4) 1000× compound was prepared. 1 μL of compound was transferred to a 96-well plate containing 199 μL of reaction buffer (50 mM Tris-HCl (pH 7.5), 0.005% Tween-20, 0.01% BSA) and mixed well.
5) 25/10×PARP1-DNA solution was prepared with reaction buffer.
6) 25/10×NAD+ solution was prepared with reaction buffer.
8) Primary antibody was 2000-fold diluted with the blocking buffer. 20 μL of primary antibody was added to the reaction plate, which was incubated at room temperature for 1.5 hours.
9) The primary antibody was discarded.
10) Secondary antibody was 2000-fold diluted with the blocking buffer.
11) The secondary antibody was discarded.
The chemiluminescence value RLU was read with Envision.

PARP2 = PARP2 (Homo sapiens (Human), UniProt Q9UGN5); assay: PARP2 enzymatic activity assay; format: biochemical; details: Biotin-NAD+ 2 μM, 60 minutes
Sequence of PARP2 (Q9UGN5 whole entry): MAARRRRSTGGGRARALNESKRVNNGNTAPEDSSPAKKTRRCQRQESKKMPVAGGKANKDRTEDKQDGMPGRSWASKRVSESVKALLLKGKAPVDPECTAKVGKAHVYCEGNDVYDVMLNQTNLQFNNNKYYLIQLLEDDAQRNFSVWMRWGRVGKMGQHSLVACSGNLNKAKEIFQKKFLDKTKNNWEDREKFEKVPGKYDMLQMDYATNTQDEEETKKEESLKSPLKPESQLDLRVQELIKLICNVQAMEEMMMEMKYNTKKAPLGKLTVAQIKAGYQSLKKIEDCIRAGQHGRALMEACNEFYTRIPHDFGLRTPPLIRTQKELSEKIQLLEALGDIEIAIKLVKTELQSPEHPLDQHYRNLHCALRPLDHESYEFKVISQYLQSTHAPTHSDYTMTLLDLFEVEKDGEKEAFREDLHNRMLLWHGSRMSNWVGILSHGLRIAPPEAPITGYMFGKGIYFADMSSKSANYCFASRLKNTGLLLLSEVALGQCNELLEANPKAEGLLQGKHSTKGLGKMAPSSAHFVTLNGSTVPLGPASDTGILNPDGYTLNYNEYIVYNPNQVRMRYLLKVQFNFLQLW

[1] = Homo sapiens, MDA-MB-436, 144 h

| PARP1/PARP2 inhibition Selectivity multiple N (N = IC50 (PARP2)/IC50 (PARP1)) (PARP1) | IC50 (PARP2; final PARP2 […]) | IC50 (PARP1) | IC50 (PARP2; final PARP2 1.5 nM) | Structure (SMILES) | IC50 (MDA-MB-436 cells; [1]) | IC50 (MDA-MB-436 cells) |
| --- | --- | --- | --- | --- | --- | --- |
| – | – | – | – | CNC(=O)c1ccc(N2CCN(Cc3cnc4c5c(c(=O)[nH]c4c3)CCC5)[C@@H]3C[C@@H]32)cn1 (relative stereo) [Example 7, cis-N-methyl-5-(5-((6-oxo-6,7,8,9-tetrahydro-5H-cyclopenta[c][1,5]naphthyridin-3-yl)methyl)-2,5-diazabicyclo[4.1.0]heptan-2-yl)picolinamide] | 13 nM | – |
| – | – | – | – | CCc1cc2ncc(CN3CCN(c4ccc(C(=O)NC5CC5)nc4)[C@H]4CC[C@H]43)cc2[nH]c1=O (relative stereo) [Example 46, cis-N-cyclopropyl-5-(5-((7-ethyl-6-oxo-5,6-dihydro-1,5-naphthyridin-3-yl)methyl)-2,5-diazabicyclo[4.2.0]octan-2-yl)pyridine-2-carboxamide] | 5 nM | – |
| 16 | – | – | – | CCc1cc2ncc(CN3CCN(c4ccc(C(=O)NC)nc4)C4CCC43)cc2[nH]c1=O (centres unmarked) [Example 2, 5-(5-((7-ethyl-6-carbonyl-5,6-dihydro-1,5-naphthyridin-3-yl)methyl)-2,5-diazabicyclo[4.2.0]octan-2-yl)-N-methylpyridine-2-carboxamide] | 5 nM | – |
| 48 | – | – | – | CCc1cc2ncc(CN3CCN(c4ccc(C(=O)NC)nc4)[C@@H]4CC[C@H]43)cc2[nH]c1=O [Example 2-3, 5-((1R,6R)-5-((7-ethyl-6-carbonyl-5,6-dihydro-1,5-naphthyridin-3-yl)methyl)-2,5-diazabicyclo[4.2.0]octan-2-yl)-N-methylpyridine-2-carboxamide] | – | – |
| 40 | – | – | – | CCc1cc2ncc(CN3CCN(c4ccc(C(=O)NC)nc4)[C@H]4CC[C@@H]43)cc2[nH]c1=O [Example 2-4, 5-((1S,6S)-5-((7-ethyl-6-carbonyl-5,6-dihydro-1,5-naphthyridin-3-yl)methyl)-2,5-diazabicyclo[4.2.0]octan-2-yl)-N-methylpyridine-2-carboxamide] | 2 nM | – |
| 83 | 75 nM | 0.9 nM | – | CCc1cc2nnc(CN3CCN(c4ccc(C(=O)NC)nc4)[C@@H]4C[C@@H]43)cc2[nH]c1=O [Example 5-1] | – | – |
| 64 | 32 nM | 0.5 nM | – | CCc1cc2nnc(CN3CCN(c4ccc(C(=O)NC)nc4)C4C[C@H]43)cc2[nH]c1=O (some centres unmarked) [Example 5-2] | – | – |
| 62 | 31 nM | 0.5 nM | – | CCc1cc2nnc(CN3CCN(c4ccc(C(=O)NC)nc4)C4C[C@H]43)cc2[nH]c1=O (some centres unmarked) [Example 5] | – | – |
| 45 | 36 nM | 0.8 nM | – | CCc1cc2nnc(CN3CCN(c4ccc(C(=O)NC)nc4)[C@@H]4CC[C@@H]43)cc2[nH]c1=O [Example 10-1] | – | – |
| 85 | 77 nM | 0.9 nM | – | CCc1cc2nnc(CN3CCN(c4ccc(C(=O)NC)nc4)C4CC[C@@H]43)cc2[nH]c1=O (some centres unmarked) [Example 10-2] | – | 5 nM |
| 105 | 105 nM | 1 nM | – | CCc1cc2nnc(CN3CCN(c4ccc(C(=O)NC)nc4)C4CC[C@H]43)cc2[nH]c1=O (some centres unmarked) [Example 10] | 9 nM | – |
| 69 | 272 nM | 3.9 nM | – | CCc1nc2ncc(CN3CCN(c4ccc(C(=O)NC)nc4)[C@H]4CC[C@H]43)cc2[nH]c1=O [Example 11-1, 5-((1S,6R)-5-((3-ethyl-2-oxo-1,2-dihydropyrido[2,3-b]pyrazin-7-yl)methyl)-2,5-diazabicyclo[4.2.0]octan-2-yl)-N-methylpicolinamide] | – | – |
| 135 | – | 1.5 nM | 202 nM | CCc1nc2ncc(CN3CCN(c4ccc(C(=O)NC)nc4)[C@@H]4CC[C@@H]43)cc2[nH]c1=O [Example 11-2, 5-((1R,6S)-5-((3-ethyl-2-oxo-1,2-dihydropyrido[2,3-b]pyrazin-7-yl)methyl)-2,5-diazabicyclo[4.2.0]octan-2-yl)-N-methylpicolinamide] | 9 nM | – |
| 60 | – | 0.3 nM | 18 nM | CNC(=O)c1ccc(N2CCN(Cc3cnc4c5c(c(=O)[nH]c4c3)CCC5)[C@@H]3CC[C@@H]32)cn1 [Example 12-1, N-methyl-5-[(1S,6R)-5-((6-oxo-5H,7H,8H,9H-cyclopenta[c][1,5]naphthyridin-3-yl)methyl)-2,5-diazabicyclo[4.2.0]octan-2-yl]pyridine-2-carboxamide] | 15 nM | – |
| – | – | – | – | CNC(=O)c1ccc(N2CCN(Cc3cnc4cc(C5CC5)c(=O)[nH]c4c3)[C@@H]3CC[C@@H]32)cn1 [Example 16-2] | 6 nM | – |
| 43 | 30 nM | 0.7 nM | – | CCc1cc2ncc(CN3CCN(c4ccc(-c5nnc(C)[nH]5)nc4)[C@@H]4CC[C@@H]43)cc2[nH]c1=O [Example 29-2] | – | 13 nM |
| – | – | – | – | CNC(=O)c1ccc(N2CCN(Cc3cnc4cc(C(F)(F)F)c(=O)[nH]c4c3)[C@@H]3CC[C@@H]32)cn1 [Example 30-1, N-methyl-5-((1S,6R)-5-((6-oxo-7-(trifluoromethyl)-5,6-dihydro-1,5-naphthyridin-3-yl)methyl)-2,5-diazabicyclo[4.2.0]octan-2-yl)picolinamide] | 2 nM | – |
| >45 | – | – | – | CNC(=O)c1ccc(N2CCN(Cc3cnc4cc(OC)c(=O)[nH]c4c3)[C@H]3CC[C@H]32)cn1 [Example 33-1] | – | – |
| >130 | > 300 nM | 2.3 nM | – | CNC(=O)c1ccc(N2CCN(Cc3cnc4cc(OC)c(=O)[nH]c4c3)[C@@H]3CCC32)cn1 (some centres unmarked) [Example 33-2] | – | – |
| – | – | – | – | CCc1cc2ncc(CN3CCN(c4ccc(C(=O)NC5CC5)nc4)[C@H]4CC[C@H]43)cc2[nH]c1=O [Example 46-1, N-cyclopropyl-5-((1S,6R)-5-((7-ethyl-6-oxo-5,6-dihydro-1,5-naphthyridin-3-yl)methyl)-2,5-diazabicyclo[4.2.0]octan-2-yl)picolinamide] | 8 nM | – |
| – | – | – | – | CCc1cc2ncc(CN3CCN(c4ccc(C(=O)NC5CC5)nc4)[C@@H]4CC[C@@H]43)cc2[nH]c1=O [Example 46-2, N-cyclopropyl-5-((1R,6S)-5-((7-ethyl-6-oxo-5,6-dihydro-1,5-naphthyridin-3-yl)methyl)-2,5-diazabicyclo[4.2.0]octan-2-yl)picolinamide] | 2 nM | – |
| – | – | – | – | CCc1cc2ncc(CN3CCN(c4ccc(C(=O)NC5CC5)nc4F)[C@H]4CC[C@H]43)cc2[nH]c1=O [Example 47-2, N-cyclopropyl-5-((1S,6R)-5-((7-ethyl-6-oxo-5,6-dihydro-1,5-naphthyridin-3-yl)methyl)-2,5-diazabicyclo[4.2.0]octan-2-yl)-6-fluoropicolinamide] | 3 nM | – |
| – | – | – | – | CCc1cc2ncc(CN3CCN(c4ccc(C(=O)NC5CCC5)nc4)[C@@H]4CC[C@@H]43)cc2[nH]c1=O [Example 48-1, N-cyclobutyl-5-((1R,6S)-5-((7-ethyl-6-oxo-5,6-dihydro-1,5-naphthyridin-3-yl)methyl)-2,5-diazabicyclo[4.2.0]octan-2-yl)picolinamide] | 12 nM | – |
| – | – | – | – | CCc1cc2ncc(CN3CCN(c4ccc(C(=O)NC5CCC5)nc4)[C@H]4CC[C@H]43)cc2[nH]c1=O [Example 48-2, N-cyclobutyl-5-((1S,6R)-5-((7-ethyl-6-oxo-5,6-dihydro-1,5-naphthyridin-3-yl)methyl)-2,5-diazabicyclo[4.2.0]octan-2-yl)picolinamide] | 2 nM | – |
